The source of these data is publication PMC12114633, “α-Glucosidase Inhibition Mechanism and Anti-Hyperglycemic Effects of Flavonoids from Astragali Radix and Their Mixture Effects” (Pharmaceuticals, 2025).

Read-outs that look alike come from different tables or passages of the source. Where only a bound is given, the exact number is not on record here.

In general, IC50 refers to the concentration at which inhibition is half-maximal. As usually defined, the Kd is the constant that tells how readily two partners part at equilibrium.

Assay [1] deals with T1, Saccharomyces cerevisiae α-glucosidase (Saccharomyces cerevisiae, UniProt P53341).
T1 construct: purchased Shanghai Yuanye Biotechnology Co., Shanghai, China Lot No. M23HS178879 (catalogue number not given)
T1 sequence (P53341 whole entry): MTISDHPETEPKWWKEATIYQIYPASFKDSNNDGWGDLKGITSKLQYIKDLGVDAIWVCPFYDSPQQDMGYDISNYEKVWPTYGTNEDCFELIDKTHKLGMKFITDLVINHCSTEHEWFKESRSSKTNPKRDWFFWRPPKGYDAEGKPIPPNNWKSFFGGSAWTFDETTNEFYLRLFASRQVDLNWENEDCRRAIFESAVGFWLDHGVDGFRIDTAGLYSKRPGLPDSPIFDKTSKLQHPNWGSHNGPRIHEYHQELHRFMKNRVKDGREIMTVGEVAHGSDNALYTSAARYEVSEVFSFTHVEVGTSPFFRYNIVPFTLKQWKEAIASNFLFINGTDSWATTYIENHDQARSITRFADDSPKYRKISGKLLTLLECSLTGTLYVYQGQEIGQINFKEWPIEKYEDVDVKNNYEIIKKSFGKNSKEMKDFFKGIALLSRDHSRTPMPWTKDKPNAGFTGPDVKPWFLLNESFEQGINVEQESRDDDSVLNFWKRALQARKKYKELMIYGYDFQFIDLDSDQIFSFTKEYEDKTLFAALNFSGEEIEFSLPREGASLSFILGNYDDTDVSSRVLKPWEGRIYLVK
Briefly: biochemical. Conditions: 5 mM pNPG, PBS pH 6.8, 37 °C. Here is the method:
(§1) The α-glucosidase inhibitory effects of flavonoids were evaluated as in a previous report with slight modifications (including changes in the concentrations of the enzyme, substrate, and Na2CO3). Briefly, 50 μL of phosphate-buffered saline (PBS, 0.1 M, pH 6.8), the test compound, and α-glucosidase (0.2 U/mL) were preincubated in a 96-well plate at 37 °C for 10 min. The reaction was then initiated by adding 50 μL of 5 mM pNPG as the substrate. Subsequently, the 96-well plate was incubated for an additional 30 min at 37 °C, then 50 μL of 0.2 M Na2CO3 was added to terminate the reaction. Absorbance was measured at under 405 nm.

Assay [2] addresses T2, α-glucosidase (Saccharomyces cerevisiae, UniProt P53341).
T2 construct: purchased Shanghai Yuanye Biotechnology Co., Shanghai, China Lot No. M23HS178879 (catalogue number not given)
Nature of the assay: Inhibitory kinetic analysis (Lineweaver–Burk plot). The class given is biochemical. The conditions noted are these: Lineweaver–Burk plots, pNPG 0.31–20 mM. Here is the method: The type of inhibition was determined by using the kinetics curve and the Lineweaver–Burk plot. […] These compounds were incubated with α-glucosidase at 37 °C for 30 min. After incubation, various concentrations of pNPG (0.31–20 mM) were added, and absorbance was measured at 405 nm. The Lineweaver–Burk plot was obtained by plotting 1/[S] on the x-axis and 1/v on the y-axis, where [S] represents substrate concentration and v represents the reaction velocity.

The target of assay [3] is T2, α-glucosidase. Briefly: CD spectroscopy, secondary structure of α-glucosidase (BeStSel). Conditions: for β-turn: free enzyme 11.7; for β-sheet: free enzyme 28.8; for random coil: free enzyme 45.2; for α-helix: free enzyme 14.4. The procedure: CD spectra in the far-UV region (190–250 nm) were scanned by using a CD spectrometer (JASCO-1.5 Tokyo, Japan). […] The slit width was set to 1 nm, and the baseline was calibrated with PBS (phosphate buffered saline). CD spectra were averaged over three scans under a constant nitrogen flow, with the buffer signal subtracted. The results were analyzed using the BeStSel database (https://bestsel.elte.hu/index.php, accessed on 16 May 2025).

The target of assay [4] is T2, α-glucosidase. Briefly: biochemical. It is filed as binding. Here is the method: SPR analysis was performed using the Biacore 8K system (GE Healthcare, Uppsala, Sweden). α-Glucosidase (0.05 mg/mL) was fixed on the CM5 sensor chip by an amine coupling kit. Subsequently, various concentrations of the 16 flavonoids dissolved in 5% DMSO were continuously injected onto the surface of α-glucosidase coated surface. After each sample injection, the sensor chip surface was washed and regenerated with running buffer (PBS) at a flow rate of 30 µL/min. According to the 1:1 Langmuir model, the equilibrium dissociation constant (KD) was calculated by the Biacore evaluation software. For sensorgrams without significant kinetic features, the KD values were calculated using the steady-state analysis.

The target in assay [5] is T2, α-glucosidase. Nature of the assay: Mixture effects of flavonoid combinations on α-glucosidase. The class given is biochemical. The conditions noted are these: calculated from the dose–response curve. The procedure: as §1
The inhibitory activity of the composition was evaluated using the same method described in Section 3.2. […] The combination index (CI, Formula (3)) was subsequently used to assess the interactions between the compounds [60].(2) Y=Bottom+Top−Bottom/1+10^^((LogIC50−X)×HillSlope)
In Formula (3), (D)j represents the concentration of component j in the mixture needed to achieve an effect of x, while (Dx)j denotes the concentration of component j required to produce the same effect when acting alone. Here, x refers to the inhibition rate produced by the composition, and n indicates the number of individual compounds in the composition.

The test system of another assay is normal C57BL/6J mice. Briefly: Oral sucrose test, postprandial blood glucose. It is filed as in vivo. Conditions: for Blood glucose levels: 30 min after sucrose 4 g/kg, n = 8, in mmol/L (unit assumed); for Rate of blood glucose reduction: vs model group, 30 min after sucrose. The source says:
Male C57BL/6J mice of SPF grade, aged 6–8 weeks and weighing 18–22 g, were obtained from the Experimental Animal Science Department of Peking University. The mice were housed in a controlled environment with a 12:12 light/dark cycle and a constant temperature. They were provided with standard pellet feed and given free access to drinking water. To ensure acclimatization, the mice were allowed to adjust to the diet and housing conditions for one week prior to the experiment. All animal experiments were performed in compliance with the relevant laws and institutional guidelines for the care and use of laboratory animals in China. The experiments were approved by the Laboratory Animal Management and Ethics Committee of Peking University (LA2021443). Additionally, the certification number for the laboratory animal personnel is 1120111300011.
The 16 flavonoids were subsequently evaluated for their potential antihyperglycemic effects by using the oral sucrose test, which is commonly used to evaluate intestinal α-glucosidase inhibition in vivo [62]. Normal C57BL/6J mice were randomly divided into model groups and the 16 flavonoid compound groups (n = 8 per group), respectively. The flavonoids at different concentrations were suspended in 0.5% sodium carboxymethyl cellulose (CMC-Na). […] Fifteen minutes after drug administration, the mice were given a sucrose solution (4 g/kg). Blood samples were collected from the tail vein at 30 min after sucrose loading, and blood glucose levels were measured using an Accu-Chek Performa glucometer (Roche Diagnostics, SN: 79508621393, Shanghai, China). The rate of blood glucose reduction was calculated using the following Formula (4):(4) The rate of blood glucose reduction%=the model blood glucose-the sample blood glucose/the model blood glucose×100%

Assay [6] deals with α-glucosidase. The conditions noted are these: cited from earlier work.
For another assay, the system named is blood glucose. The conditions noted are these: 50 mg/kg, cited from earlier work.
The mark [7] stands for this setting: molar ratio 10:1, α-glucosidase 4 μM.
Setting [8] is: molar ratio 40:1, α-glucosidase 4 μM.
[9] abbreviates: molar ratio compound:α-glucosidase 10:1, α-glucosidase 4 μM.
Where [10] appears, read: literature values, reference given, read-out: IC50 in References.

T2 sequence (P53341 whole entry): as above

Consider `COc1ccc(-c2coc3cc(O[C@@H]4O[C@H](CO)[C@@H](O)[C@H](O)[C@H]4O)ccc3c2=O)cc1O` [C16, calycosin-7-O-glucoside], for which the IC50 in assay [1] (IC50, α-glucosidase 0.2 U/mL) was 563 ± 43.6 µM; at α-glucosidase [6] (setting [10]) it was 174 µM. The “type of inhibition on α-glucosidase” value on α-glucosidase [2] is “mixed-type inhibitors”. Further, the figures for the β-turn on α-glucosidase [3] (setting [7]) and on α-glucosidase [3] (setting [8]) were 11.7% and 11.5%, respectively. The β-sheet at α-glucosidase [3] (setting [7]) is listed as 29.5%; at α-glucosidase [3] (setting [8]) it was 27.7%. Moreover, the random coil came out at 45.6% at α-glucosidase [3] (setting [7]) and 48.6% at α-glucosidase [3] (setting [8]). In addition, the α-helix at α-glucosidase [3] (setting [8]) is on record as 12.1%; at α-glucosidase [3] (setting [9]), 13.3%. Further, the affinity at α-glucosidase [4], expressed as Kd, was 364 µM. The IC05 on α-glucosidase [5] is 150.00 µM. Also, the Blood glucose levels with normal C57BL/6J mice (10 mg/kg oral) was found to be 15.01 ± 1.15; with normal C57BL/6J mice (25 mg/kg oral), 13.71 ± 0.77; with normal C57BL/6J mice (50 mg/kg oral) it was 12.78 ± 0.74. Moreover, the results for the “Rate of blood glucose reduction” value in the assay with normal C57BL/6J mice (10 mg/kg oral), in the assay with normal C57BL/6J mice (25 mg/kg oral) and in the assay with normal C57BL/6J mice (50 mg/kg oral) were 2.75%, 11.17% and 17.25%, respectively.

For the compound aquilarixanthone [reference compound], the IC50 on α-glucosidase [6] (read-out: IC50) is 678 µM.

The compound `O=C1C[C@@H](c2ccc(O)cc2)Oc2cc(O)ccc21` [C3, liquiritigenin] came in with an IC50 in assay [1] (IC50, α-glucosidase 0.2 U/mL) of 161 ± 36.3 µM. In addition, the “type of inhibition on α-glucosidase” value at α-glucosidase [2] is reported as “non-competitive inhibitors”. The β-turn came out at 14.2% on α-glucosidase [3] (setting [7]) and 16.2% at α-glucosidase [3] (setting [8]). Moreover, the β-sheet turned out to be 18.0% at α-glucosidase [3] (setting [7]) and 16.6% on α-glucosidase [3] (setting [8]). The random coil was determined as 56.1% at α-glucosidase [3] (setting [7]) and 59.2% on α-glucosidase [3] (setting [8]). The α-helix at α-glucosidase [3] (setting [8]) was determined as 8.00%; on α-glucosidase [3] (setting [9]), 11.7%. Moreover, the Kd on α-glucosidase [4] was more than 2000 µM. Moreover, on α-glucosidase [4] (result in words), the “binding to α-glucosidase (SPR)” value is “did not show binding”. The IC05 at α-glucosidase [5] was 13.71 µM. Further, the Blood glucose levels came to 14.06 ± 1.45 in the assay on normal C57BL/6J mice (10 mg/kg oral), 13.19 ± 1.35 in the assay with normal C57BL/6J mice (50 mg/kg oral) and 11.58 ± 1.23 in the assay on normal C57BL/6J mice (100 mg/kg oral). In addition, the “Rate of blood glucose reduction” value in the assay with normal C57BL/6J mice (10 mg/kg oral) is on record as -0.90%; in the assay on normal C57BL/6J mice (50 mg/kg oral) it was 5.38%; in the assay with normal C57BL/6J mice (100 mg/kg oral), 16.95%.

Consider `COc1cc(-c2oc3cc(O)cc(O)c3c(=O)c2OC2OC(CO)C(O)C(O)C2O)ccc1O` (stereo not drawn) [C14, isorhamnetin-3-O-glucoside], for which the IC50 in assay [1] (α-glucosidase 0.2 U/mL, read-out: IC50) is 228 ± 34 µM; on α-glucosidase [6] (setting [10]), 275 µM. At α-glucosidase [2], the “type of inhibition on α-glucosidase” value is “mixed-type inhibitors”. The β-turn on α-glucosidase [3] (setting [7]) was 12.8%; at α-glucosidase [3] (setting [8]), 15.7%. Further, the β-sheet is recorded as 33.7% on α-glucosidase [3] (setting [7]) and 19.8% at α-glucosidase [3] (setting [8]). For the same compound, the random coil on α-glucosidase [3] (setting [7]) was 40.4%; on α-glucosidase [3] (setting [8]), 56.6%. Besides, the α-helix worked out at 7.80% on α-glucosidase [3] (setting [8]) and 13.1% on α-glucosidase [3] (setting [9]). The Kd at α-glucosidase [4] (kinetic model (1:1 Langmuir), read-out: KD) stood at 383 µM. In addition, the Blood glucose levels with normal C57BL/6J mice (10 mg/kg oral) was found to be 14.84 ± 0.62; in the assay on normal C57BL/6J mice (50 mg/kg oral) it was 12.66 ± 0.48; in the assay on normal C57BL/6J mice (100 mg/kg oral) it was 12.19 ± 0.81. Besides, the “Rate of blood glucose reduction” value in the assay on normal C57BL/6J mice (10 mg/kg oral) was -2.50%; in the assay on normal C57BL/6J mice (50 mg/kg oral), 12.52%; in the assay with normal C57BL/6J mice (100 mg/kg oral), 15.80%.

Take `O=c1c(O)c(-c2ccc(O)c(O)c2)oc2cc(O[C@@H]3O[C@H](CO)[C@@H](O)[C@H](O)[C@H]3O)c(O)c(O)c12` [quercetagetin-7-O-glucoside]: in the assay on blood glucose (ref 51 (Tian et al.)), the “reduction of blood glucose” value is on record as 16.7%.

`O=c1c(-c2ccc(O)cc2)coc2cc(O)ccc12` [C11, daidzein]: half-maximal inhibition in assay [1] (IC50, α-glucosidase 0.2 U/mL) (IC50) was put at 83.7 ± 20.2 µM. For the same compound, the “type of inhibition on α-glucosidase” value at α-glucosidase [2] was “non-competitive inhibitors”. Besides, on α-glucosidase [3] (setting [7]), the β-turn amounted to 12.7%, the β-sheet came to 28.8% and the random coil came out at 40.8%. In addition, on α-glucosidase [3] (setting [8]), the β-turn was determined as 14.3%, the α-helix was 14.6%, the β-sheet is on record as 25.5% and the random coil is 45.5%. Besides, the α-helix at α-glucosidase [3] (setting [9]) turned out to be 17.7%. The Kd at α-glucosidase [4] was 20 µM. For the same compound, at α-glucosidase [6] (setting [10]), the IC50 is 150 µM.

On to `C[C@@H]1O[C@@H](OC[C@H]2O[C@@H](Oc3cc4c(O)cc(O)cc4[o+]c3-c3ccc(O)cc3)[C@H](O)[C@@H](O)[C@@H]2O)[C@H](O)[C@H](O)[C@H]1O` [pelargonidin-3-O-rutinoside], for which the “reduction of blood glucose” value in the assay with blood glucose (ref 52 (Xu et al.)) is given as 18.5%.

Regarding `CC(=O)Cc1cc(=O)c2c(C)cc(O)c([C@@H]3O[C@H](CO)[C@@H](O)[C@H](O)[C@H]3OC(=O)/C=C/c3ccc(O)cc3)c2o1` [Aloeresin A, reference compound], the IC50 at α-glucosidase [6] (read-out: IC50) was 11900 µM.
